Each structure is given as a SMILES string. A value given as a limit tells only on which side of the number the result lay.

The values below come from patent publication US10106515B2, “1-(cyclopent-2-en-1-yl)-3-(2-hydroxy-3-(arylsulfonyl)phenyl)urea derivatives as CXCR2 inhibitors” (GLAXOSMITHKLINE INTELLECTUAL PROPERTY DEVELOPMENT LIMITED, priority 2014, dated 2018).

In this assay the target is T1, recombinant human CXCR2 (Homo sapiens, UniProt P25025).
T1 construct: TEV protease site; Gal4-VP16 transcription factor
T1 sequence (P25025 1-360): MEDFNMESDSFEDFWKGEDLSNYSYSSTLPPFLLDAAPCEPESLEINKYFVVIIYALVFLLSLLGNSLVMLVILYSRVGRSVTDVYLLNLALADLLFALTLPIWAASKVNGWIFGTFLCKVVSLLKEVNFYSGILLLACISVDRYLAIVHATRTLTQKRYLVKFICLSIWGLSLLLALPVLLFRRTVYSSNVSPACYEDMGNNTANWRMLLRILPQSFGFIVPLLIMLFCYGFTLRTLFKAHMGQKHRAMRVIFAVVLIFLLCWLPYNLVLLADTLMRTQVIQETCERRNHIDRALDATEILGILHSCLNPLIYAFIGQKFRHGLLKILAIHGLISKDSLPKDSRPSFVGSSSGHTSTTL
The assay can be described thus: CXCR2 Tango assay. Type of assay: cell-based. The conditions noted are these: mean pIC50 of multiple test results; stimulated with 80 nM hCXCL1; reporter gene blue/green emission ratio; read-out: pIC50 (CXCR2 Tango assay) (converted). Put shortly:
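Mean pIC50 comes from sigmoidal fits of the blue/green (460/530 nm) CCF4-AM ratio, normalized between hCXCL1-stimulated and DMSO controls. Compounds in 10-point dose response were incubated overnight at 37 °C with recombinant human CXCR2 Tango cells (~10,000/well) and 80 nM hCXCL1, with reporter read-out via arrestin-TEV release of Gal4-VP16.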
On the technique in general: A reporter such as luciferase makes a cellular process visible.

As to `CC1=CCC[C@H]1NC(=O)Nc1ccc(Cl)c(S(=O)(=O)[C@@]2(C)CCOC2)c1O` [Compound 195, 1-(4-chloro-2-hydroxy-3-(((S)-3-methyltetrahydrofuran-3-yl)sulfonyl)phenyl)-3-((R)-2-methylcyclopent-2-en-1-yl)urea], the IC50 is ≤ 10 nM.
